Values of other authors as cited in patent publication US20060186374A1, “Hydrophobic propellant gas mixtures for producing insulating foams” (priority 2003, published 2006).

settings: octanol/water, decadic logarithm

Structure (SMILES)	log PO/W
FC(F)CC(F)(F)F [R245fa, 1,1,1,3,3-pentafluoropropane]	1.35
FCC(F)(F)F [R134a, 1,1,1,2-tetrafluoroethane]	1.06
CC(C)C [i-butane]	2.8
FC(C(F)(F)F)C(F)(F)F [R227ea, 1,1,1,2,3,3,3-heptafluoropropane]	2.5
CC(F)(F)CC(F)(F)F [R365mfc, 1,1,1,3,3-pentafluorobutane]	1.6

Next, values leading:

log PO/W	Structure (SMILES)
2.3	CCC [Propane, propane]
0.75	CC(F)F [R152a, 1,1-difluoroethane]
0.1	COC [DME, dimethyl ether]
